Source: ChEMBL document CHEMBL1147295, “Plant antimutagens, 6. Intricatin and intricatinol, new antimutagenic homoisoflavonoids from Hoffmanosseggia intricata” (J Nat Prod, 1989)

Experiments:
[1] = test system: Salmonella typhimurium; experiment: Antimutagenic activity in Salmonella Typhimurium T-98 assessed as inhibition of acetylaminofluorene-induced mutation at 300 ug/plate; format: functional, Salmonella enterica subsp. enterica serovar Typhimurium
[2] = test system: Salmonella typhimurium; experiment: Antimutagenic activity in Salmonella Typhimurium T-98 assessed as inhibition of 2-aminoanthracene-induced mutation at 75 ug/plate; format: functional, Salmonella enterica subsp. enterica serovar Typhimurium
[3] = test system: Salmonella typhimurium; experiment: Antimutagenic activity in Salmonella Typhimurium T-98 assessed as inhibition of 2-aminoanthracene-induced mutation at 150 ug/plate; format: functional, Salmonella enterica subsp. enterica serovar Typhimurium
[4] = test system: Salmonella typhimurium; experiment: Toxicity to Salmonella Typhimurium at 0.6 mg/plate; format: organism-based, Salmonella enterica subsp. enterica serovar Typhimurium; details: in vivo
[5] = test system: Salmonella typhimurium; experiment: Antimutagenic activity in Salmonella Typhimurium T-98 assessed as inhibition of 2-aminoanthracene-induced mutation at 300 ug/plate; format: functional, Salmonella enterica subsp. enterica serovar Typhimurium
[6] = test system: Salmonella typhimurium; experiment: Antimutagenic activity in Salmonella Typhimurium T-98 assessed as inhibition of acetylaminofluorene-induced mutation at 150 ug/plate; format: functional, Salmonella enterica subsp. enterica serovar Typhimurium
[7] = test system: Salmonella typhimurium; experiment: Antimutagenic activity in Salmonella Typhimurium T-98 assessed as inhibition of acetylaminofluorene-induced mutation at 75 ug/plate; format: functional, Salmonella enterica subsp. enterica serovar Typhimurium
[8] = test system: Salmonella typhimurium; experiment: Antimutagenic activity in Salmonella Typhimurium T-98 assessed as inhibition of 2-aminoanthracene-induced mutation at 37.5 ug/plate; format: functional, Salmonella enterica subsp. enterica serovar Typhimurium
[9] = test system: Salmonella typhimurium; experiment: Antimutagenic activity in Salmonella Typhimurium T-100 assessed as inhibition of ethyl methanesulfonate-induced mutation at 300 ug/plate; format: functional, Salmonella enterica subsp. enterica serovar Typhimurium
[10] = test system: Salmonella typhimurium; experiment: Antimutagenic activity in Salmonella Typhimurium T-100 assessed as inhibition of ethyl methanesulfonate-induced mutation at 75 ug/plate; format: functional, Salmonella enterica subsp. enterica serovar Typhimurium
[11] = test system: Salmonella typhimurium; experiment: Antimutagenic activity in Salmonella Typhimurium T-100 assessed as inhibition of ethyl methanesulfonate-induced mutation at 150 ug/plate; format: functional, Salmonella enterica subsp. enterica serovar Typhimurium
[12] = test system: Salmonella typhimurium; experiment: Antimutagenic activity in Salmonella Typhimurium T-98 assessed as inhibition of acetylaminofluorene-induced mutation at 37.5 ug/plate; format: functional, Salmonella enterica subsp. enterica serovar Typhimurium
[13] = test system: Salmonella typhimurium; experiment: Antimutagenic activity in Salmonella Typhimurium T-100 assessed as inhibition of ethyl methanesulfonate-induced mutation at 37.5 ug/plate; format: functional, Salmonella enterica subsp. enterica serovar Typhimurium
[14] = test system: Salmonella typhimurium; experiment: Toxicity to Salmonella Typhimurium at 0.3 mg/plate; format: organism-based, Salmonella enterica subsp. enterica serovar Typhimurium; details: in vivo

| Compound | inhibition (INH) [1] | inhibition (INH) [2] | inhibition (INH) [3] | Activity [4] | inhibition (INH) [5] | inhibition (INH) [6] | inhibition (INH) [7] | inhibition (INH) [8] | inhibition (INH) [9] | inhibition (INH) [10] | inhibition (INH) [11] | inhibition (INH) [12] | inhibition (INH) [13] | Activity [14] |
| --- | --- | --- | --- | --- | --- | --- | --- | --- | --- | --- | --- | --- | --- | --- |
| COc1ccc(/C=C2\COc3c(ccc(OC)c3O)C2=O)cc1 [INTRICATIN] | 7% | 92% | 84% | Non-toxic | 62% | 0% | 0% | 70% | 45% | 4% | 27% | 8% | 9% | Non-toxic |
| COc1ccc(/C=C2\COc3c(ccc(O)c3O)C2=O)cc1 [INTRICATINOL] | 70% | 36% | 57% | Non-toxic | 87% | 54% | 48% | 8% | 74% | 74% | 82% | 26% | 30% | Non-toxic |
